According to US11701361B2, “p110-delta inhibitors treat and prevent autoimmunity while sparing the ability to mount an immune response to exogenous immunogens” (THE REGENTS OF THE UNIVERSITY OF COLORADO, priority 2018, dated 2023):

How the values were obtained:
VH125.NOD mice = experiment: T1D disease progression in VH125.NOD mice on idelalisib chow; type: in vivo, mouse; conditions: female VH125.NOD mice, vs vehicle control chow
Text: Except where otherwise indicated, 6-16 week old mice were used in all experiments. Both male and female mice were used, but experiments were sex matched and both sexes gave identical results, with the exception of only female mice being used in the VH125.NOD experiments as female mice develop accelerated disease. hCD20-TamCre animals (Khalil, et al. Science 336: 1178-81) were intercrossed with mice carrying the rosa26-flox-STOP-YFP allele (Srinivas, et al., BMC Dev. Biol. 1:4), generating mice in which YFP is expressed in B cells upon Cre activation. These mice were crossed with Ars/A1 (Benschop, et al., Immunity 14: 33-43) transgenic mice to generate hCD20-TamCre×rosa26-flox-STOP-YFP×Ars/A1 mice. B cells from these mice will be referred to as WT Ars/A1. […]
Diet dose (DD) is calculated by multiplying the single daily dose (SD) by the body weight of a mouse (BW) and dividing that by the daily food intake (FI) [DD=(SD×BW)/FI]. […]
To test this possibility, immediately post-weaning, female VH125.NOD mice were placed on vehicle control chow to allow habituation to the diet. […] Disease progression was monitored based on blood glucose levels and visible signs of disease (i.e., hunching, scruffy fur, excessive urination).

SHP-1^−/− B cells = experiment: adoptive transfer of autoreactive SHP-1-/- Ars/A1 B cells, loss of anergy; type: in vivo, mouse
Text: Except where otherwise indicated, 6-16 week old mice were used in all experiments. Both male and female mice were used, but experiments were sex matched and both sexes gave identical results, with the exception of only female mice being used in the VH125.NOD experiments as female mice develop accelerated disease. hCD20-TamCre animals (Khalil, et al. Science 336: 1178-81) were intercrossed with mice carrying the rosa26-flox-STOP-YFP allele (Srinivas, et al., BMC Dev. Biol. 1:4), generating mice in which YFP is expressed in B cells upon Cre activation. These mice were crossed with Ars/A1 (Benschop, et al., Immunity 14: 33-43) transgenic mice to generate hCD20-TamCre×rosa26-flox-STOP-YFP×Ars/A1 mice. B cells from these mice will be referred to as WT Ars/A1. These mice were also crossed with SHIP-1^flox/flox mice (Karlsson, et al. J Exp Med 198: 333-40). hCD20-TamCre×rosa26-flox-STOP-YFP×Ars/A1 mice were also crossed to PTEN^flox/flox mice (Anzelon, et al., Nat Immunol 4: 287-94) and SHP-1^flox/flox mice to generate mice in which SHIP-1, PTEN and SHP-1 deletion can be induced in anergic B cells. hCD20-TamCre×rosa26-flox-STOP-YFP×PTEN^flox/flox×Ars/A1 were crossed to hCD20-TamCre×rosa26-flox-STOP-YFP×SHIP-1^flox/flox×Ars/A1 to generate hCD20-TamCre×rosa26-flox-STOP-YFPx PTEN^flox/wt×SHIP-1^flox/wt×Ars/A1 to allow for the double haploinsufficiency of both PTEN and SHIP-1 within B cells.
2 hours before adoptive transfer, C57BL/6 recipient mice received 200 rads irradiation. […] B cells from donor mice were isolated via depletion of CD43+ cells with anti-CD43-conjugated magnetic beads (MACS anti-mouse CD43; Miltenyi Biotec). Alternatively, CD4+ T cells were isolated via CD4 positive selection (MACS anti-mouse CD4 (L3T4) Miltenyi Biotec). Resultant populations were >97% pure based on flow cytometric analyses. Donor B cells were labeled with either CellTrace Violet (Molecular Probes) or CFSE (Molecular Probes) at 5 μM for 5 minutes at room temperature prior to transfer. Donor CD4 T cells were labeled with CFSE (Molecular Probes) at 5 μM for 5 minutes at room temperature prior to transfer. 1-2×10^6 donor cells in 200 μl PBS were adoptively transferred via IV injection. 24 hours post transfer, tamoxifen was administered to activate Cre. Tamoxifen (Sigma-Aldrich) was dissolved in 100% corn oil (Sigma-Aldrich) at 20 mg/ml. Recipient mice were injected IP with 100 μl (2 mg) on two consecutive days.
Diet dose (DD) is calculated by multiplying the single daily dose (SD) by the body weight of a mouse (BW) and dividing that by the daily food intake (FI) [DD=(SD×BW)/FI].
For VH125.NOD experiments animals are placed on control chow immediately after weaning.
Spleens were mechanically disrupted, single-cell suspensions were generated, and red blood cells were lysed with ammonium chloride TRIS. Cells were resuspended in PBS containing 1% FBS and incubated with indicated antibodies. For analysis of cell surface markers, antibodies against the following molecules were used: B220-PE (BioLegend), B220-BV786 (BD Biosciences), B220-BV510 (BioLegend), CD4-BV711 (BioLegend), CD8-BV421 (BioLegend), CD138-PECy7 (BioLegend), CD69-BV786 (BD Biosciences), CD86-PerCPCy5.5 (BioLegend). After cell surface staining, the cells were fixed and permeabilized with Cytofix/Cytoperm (BD) per manufacturer's instructions and stained with Dylight650-E4 anti-Ars/A1 idiotype (produced and conjugated in our laboratory) OR HEL-650 (produced and conjugated in our laboratory) and Alexa Fluor 488-anti-GFP (rabbit polyclonal; Life Technologies). Events were collected on a CyAn ADP (Dako) and subsequent analysis using FlowJo software (Tree Star).
For detection of IgM^a anti-Ars antibodies, microtiter plates were coated with 10 μg/ml Ars-BSA16 in PBS and blocked with 2 mg/ml BSA in PBS 0.05% Tween-20. For detection of IgM^a anti-HEL antibodies, microtiter plates were coated with 10 μg/ml HEL in PBS and blocked with 2 mg/ml BSA in PBS 0.05% Tween-20. […]

[1] = system: splenic B cells from C57BL/6 mice; experiment: BCR-mediated calcium flux in B cells; type: cell-based, mouse; conditions: 15 nM, 60 nM and 490 nM idelalisib added simultaneously with anti-Ig heavy and light chain F(ab′)2
Method: For measurements of intracellular free calcium concentration ([Ca^2+]i), RBC-depleted single-cell suspended splenocytes were simultaneously stained with CD8-PE (BD Biosciences), CD4-APC (BioLegend) or B220-PE and loaded with Indo-1 acetoxymethyl (Molecular Probes), as described previously (Gauld, et al., Nat Immunol 6: 1160-1167). For analysis of ([Ca^2+]i), cells were suspended at 10×10^6 cells/ml in warm IMDM+2% FBS in a 500 ul volume. […] Mean relative ([Ca^2+]i) was monitored over time using an LSR Fortessa X-20 (BD) with analysis using FlowJo software.

AKT = experiment: phosphorylated signaling intermediaries after BCR stimulation: AKT; type: cell-based, mouse; conditions: all doses of inhibitor (15, 60, 490 nM), preincubation
Method: Cells are then washed 2× in serum free IMDM, and stimulated with 5 μg/ml of F(ab′)2 rabbit anti-mouse anti-IgG (H&L; Invitrogen) or 10 μg/ml anti-CD3-biotin (BD Biosciences)+20 μg/ml streptavidin (Sigma-Aldrich) for 2 minutes. Signaling was stopped by addition of 20% PFA to a final concentration of 2%, incubated at 37° C. for 15 minutes and resuspended in 100% ice-cold MeOH (directly from −80° C.). Cells were then placed on ice for 30 minutes and placed at −20° C. for storage. For analysis, cells were stained with B220-BV786, CD4-BV711, CD8-BV421, and/or pAKT-Alexa Fluor 647 (BD Biosciences), pPLCγ-PE (BD Biosciences), pBTK-BV421 (BD Biosciences) pSyk/Zap70-PE (BD Biosciences) at room temperature for 1 hour. Cells were washed 3 times and samples were acquired in triplicate on an LSR Fortessa X-20 (BD) with analysis using FlowJo software.

[2] = 0.9375 mg/kg or 3.75 mg/kg chow vs vehicle

How did the “disease progression (blood glucose levels and visible signs of disease)” value (VH125.NOD mice; 0.9375 mg/kg idelalisib chow from pre-diabetic blood glucose readings) turn out when CC[C@H](Nc1ncnc2nc[nH]c12)c1nc2cccc(F)c2c(=O)n1-c1ccccc1 [idelalisib, 5-fluoro-3-phenyl-2-[(1S)-1-(7H-purin-6-ylamino)propyl]-4(3H)-quinazolinone] was run?
Its value is “significantly delayed”.

And the survival (VH125.NOD mice; 0.9375 mg/kg idelalisib chow)?
The survival was “extended”.

What about the “differentiation of SHP-1−/− B cells (plasmablasts)” value (SHP-1^−/− B cells; [2]) of the same compound?
The value was “equivalent amounts”.

And the “proliferation of SHP-1−/− B cells” value (SHP-1^−/− B cells; [2])?
Its value is “equivalent amounts”.

And the “differentiation of SHP-1−/− B cells (plasmablasts)” value (SHP-1^−/− B cells; 30 mg/kg chow)?
The value was “decreased”.

And the “proliferation of SHP-1−/− B cells” value (SHP-1^−/− B cells; 30 mg/kg chow)?
The value was “decreased”.

And the “recovery of adoptively transferred SHP-1−/− B cells from the spleens (trend of reduced recovery)” value (SHP-1^−/− B cells; animals receiving idelalisib-containing chow)?
The value was “not significant”.

And the “autoimmunity (autoantibody, ASCs)” value (SHP-1^−/− B cells; high dose (30 mg/kg chow))?
The value was “blocked”.

What about the “loss of anergy caused by SHP-1 induced deficiency (autoantibody, ASCs)” value (SHP-1^−/− B cells; low and intermediate dose (0.9375 and 3.75 mg/kg chow)) of the same compound?
Its value is “no effect”.

What about the calcium mobilization [1] of the same compound?
Its calcium mobilization is “suppressed”.

What about the “phosphorylation of AKT” value (AKT) of the same compound?
Its value is “significantly reduced”.
